{"source": "patent US20210393610A1", "about": "“COMPOSITIONS AND METHODS FOR TREATING GOUT AND HYPERURICEMIA” (Jiangsu Hengrui Medicine Co., Ltd., priority 2018, published 2021)", "key": {"[1]": {"assay": "PK interaction of the compound of Formula I-1, febuxostat and colchicine (PK parameters in plasma)", "details": "for AUC: plasma, oral, AUCss of the compound of Formula I-1, geometric mean", "method": "(§1) The subjects were screened and examined on D-21 to D-15. 0.5 mg of colchicine once a day (qd) were orally administered to those who passed the screening on an empty stomach (D-14 to D16). If the subject was receiving an uric acid-lowering therapy (including allopurinol, febuxostat, benzbromarone, probenecid and the like) at the time of screening, the drug should be withdrawn for at least 2 weeks before D1. The subjects were admitted to the phase I clinical trial ward on D-2, and medical history inquiry, physical examination, vital signs examination, 12-lead electrocardiogram (ECG) examination, blood pregnancy examination (for female of childbearing age) were conducted again [if D-2 was more than 20 days away from the screening period, then blood examination, urine routine examination, CK\\CK-MB, blood biochemistry (including serum creatinine and uric acid) examination were also required].\nDuring the hospital stay, the subjects were fasted for more than 10 hours after dinner everyday (with free access to water). […] On D2, the subjects on an empty stomach were subjected to blood sampling, followed by having a standard meal which should be eaten within 20 minutes. Except for before the drug administration and 1 hour after the drug administration, water was consumed as needed at other times. On D3 to 8, no less than 2 L of water was consumed daily. On D9, the subjects can be discharged from the hospital after completing relevant examinations and operations, with a total hospital stay of 10 days. On D16 to 23, the subjects came back to the phase I clinical trial ward for follow-up. Throughout the study period, the subjects should avoid strenuous exercise and prolonged bed rest. The drug administration scheme is detailed in Table 1.\nColchicine tablets: D-14 to D16, 0.5 mg qd, orally administered on an empty stomach; Febuxostat tablets: D1 and D8, 80 mg qd, orally administered on an empty stomach; Tablets of the compound of Formula I-1: D3 to D8, 10 mg qd, orally administered on an empty stomach.\nG. Main Observation Indicator • i. PK parameters of the compound of Formula I-1, febuxostat (Ruiyang®) and colchicine in plasma."}, "serum uric acid (sUA)": {"system": "serum uric acid (sUA)", "assay": "PD interaction: serum uric acid (sUA) level after separate and combined administration", "format": "in vivo, patients suffering from gout", "method": "as §1\nDuring the hospital stay, the subjects were fasted for more than 10 hours after dinner everyday (with free access to water). […] On D2, the subjects on an empty stomach were subjected to blood sampling, followed by having a standard meal which should be eaten within 20 minutes. Except for before the drug administration and 1 hour after the drug administration, water was consumed as needed at other times. On D3 to 8, no less than 2 L of water was consumed daily. […]"}, "[2]": {"details": "febuxostat alone group v.s. lesinurad 400 mg plus febuxostat group; cited from earlier work"}, "sUA": {"system": "sUA", "details": "after 6 months; febuxostat alone group; cited from earlier work"}, "[3]": {"details": "combined administration with febuxostat 80 mg"}, "[4]": {"details": "combined administration with the compound of Formula I-1, no statistical difference (P>0.05)"}, "[5]": {"details": "impact of compound of Formula I-1 on colchicine"}, "[6]": {"details": "impact of febuxostat on colchicine"}, "[7]": {"details": "single administration (colchicine 0.5 mg qd)"}, "[8]": {"details": "impact of febuxostat on the compound of Formula I-1"}}, "data": [{"smiles": "COc1cc2c(c(OC)c1OC)-c1ccc(OC)c(=O)cc1[C@@H](NC(C)=O)CC2", "note": "[colchicine]", "values": [{"measurement": "Css, max of colchicine, geometric mean", "setting": "[1]; combined administration with compound of Formula I-1 10 mg qd", "value": 2.2048, "unit": "ng/mL"}, {"measurement": "AUCss of colchicine, geometric mean", "setting": "[1]; [3]", "value": 18.3270, "unit": "ng·h/mL"}, {"measurement": "Css, max of colchicine, geometric mean", "setting": "[1]; [3]", "value": 2.2601, "unit": "ng/mL"}, {"measurement": "decrease of Css,max of colchicine", "setting": "[1]; combined administration with febuxostat, no statistical difference (P>0.05)", "value": 9.92, "unit": "%"}, {"measurement": "decrease of AUCss of colchicine", "setting": "[1]; [4]", "value": 9.84, "unit": "%"}, {"measurement": "decrease of Css,max of colchicine", "setting": "[1]; [4]", "value": 12.12, "unit": "%"}, {"measurement": "AUCss of colchicine, Ratio (combined administration vs single administration)", "setting": "[1]; [5]", "value": 90.16, "unit": "%"}, {"measurement": "Css, max of colchicine, Ratio (combined administration vs single administration)", "setting": "[1]; [5]", "value": 87.88, "unit": "%"}, {"measurement": "AUCss of colchicine, Ratio (combined administration vs single administration)", "setting": "[1]; [6]", "value": 99.43, "unit": "%"}, {"measurement": "Css, max of colchicine, Ratio (combined administration vs single administration)", "setting": "[1]; [6]", "value": 90.08, "unit": "%"}, {"measurement": "AUCss of colchicine, geometric mean", "setting": "[1]; [7]", "value": 18.4329, "unit": "ng·h/mL"}, {"measurement": "Css, max of colchicine, geometric mean", "setting": "[1]; [7]", "value": 2.5089, "unit": "ng/mL"}]}, {"smiles": "O=C([O-])C1(Sc2ccnc3ccc(Br)cc23)CCC1.[Na+]", "note": "[compound of Formula I-1]", "values": [{"measurement": "effect of febuxostat on the steady-state exposure level of the compound of Formula I-1", "setting": "[1]; combined administration of febuxostat and the compound of Formula I-1", "value": "substantially no effect"}, {"measurement": "Css, max of the compound of Formula I-1, geometric mean", "setting": "[1]; combined administration with febuxostat 80 mg (colchicine background)", "value": 1687.45, "unit": "ng/mL"}, {"measurement": "AUC", "setting": "[1]; human, combined administration with febuxostat 80 mg (colchicine background)", "value": 14700, "unit": "ng·h/mL"}, {"measurement": "AUC", "setting": "[1]; human, single administration, 10 mg qd (colchicine 0.5 mg qd background)", "value": 14400, "unit": "ng·h/mL"}, {"measurement": "AUCss of the compound of Formula I-1, Ratio (combined administration vs single administration)", "setting": "[1]; [8]", "value": 102.31, "unit": "%"}, {"measurement": "Css, max of the compound of Formula I-1, Ratio (combined administration vs single administration)", "setting": "[1]; [8]", "value": 101.68, "unit": "%"}, {"measurement": "Css, max of the compound of Formula I-1, geometric mean", "setting": "[1]; single administration, 10 mg qd (colchicine 0.5 mg qd background)", "value": 1659.60, "unit": "ng/mL"}, {"measurement": "average maximum reduction of serum sUA concentration", "setting": "serum uric acid (sUA); compound of Formula I-1 10 mg qd administered sequentially, relative to baseline (D3-0 h)", "value": 60.883, "unit": "%"}]}, {"smiles": "Cc1nc(-c2ccc(OCC(C)C)c(C#N)c2)sc1C(=O)O", "note": "[febuxostat]", "values": [{"measurement": "AUC0-last of febuxostat, Ratio (combined administration vs single administration)", "setting": "[1]; human, in vivo", "value": 88.54, "unit": "%"}, {"measurement": "Cmax of febuxostat, Ratio (combined administration vs single administration)", "setting": "[1]; human, in vivo", "value": 86.42, "unit": "%"}, {"measurement": "average maximum reduction of serum uric acid (sUA) concentration", "setting": "serum uric acid (sUA); single administration of febuxostat 80 mg, compared with single administration of colchicine at steady state", "value": 22.144, "unit": "%"}, {"measurement": "incidence of kidney-related adverse events", "setting": "[2]", "value": 5.5, "unit": "%"}, {"measurement": "serum creatinine increased ≥ 1.5 times the baseline", "setting": "[2]", "value": 2.8, "unit": "%"}, {"measurement": "serum creatinine increased ≥2 times the baseline", "setting": "[2]", "value": 0, "unit": "%"}, {"measurement": "proportion of patients who achieved sUA<5.0 mg/dl", "setting": "sUA", "value": 46.8, "unit": "%"}]}]}
